The subject of one series is Plutella xylostella. The experiment in a line: Activity against Plutella xylostella (diamond back moth), artificial diet. The series is classed as in vivo. The note with it: 120 h, application rate of 200 ppm, L2 larvae on artificial diet, 5 days after infestation, read-out: effect in at least one of the two categories (mortality or growth inhibition). As to the method:
24-well microtiter plates with artificial diet were treated with aqueous test solutions prepared from 10′000 ppm DMSO stock solutions by pipetting. After drying, the plates were infested with L2 larvae (10 to 15 per well). The samples were assessed for mortality and growth inhibition in comparison to untreated samples 5 days after infestation.

Series [1] concerns Myzus persicae. The experiment in a line: Activity against Myzus persicae (green peach aphid), sprayed sunflower leaf discs. The series is classed as in vivo. The conditions noted are these: foliar, 144 h, application rate of 200 ppm, aphid population of mixed ages, 6 days after infestation. Here is the method:
Sunflower leaf discs were placed on agar in a 24-well microtiter plate and sprayed with aqueous test solutions prepared from 10′000 ppm DMSO stock solutions. After drying, the leaf discs were infested with an aphid population of mixed ages. The samples were assessed for mortality 6 days after infestation.

Series [2] deals with Myzus persicae. The series can be described thus: Activity against Myzus persicae (green peach aphid), roots of pea seedlings in test solution. The conditions noted are these: 144 h, test rate of 24 ppm, roots of infested pea seedlings in test solution, 6 days. The series is classed as in vivo. As to the method:
Roots of pea seedlings infested with an aphid population of mixed ages were placed directly in the aqueous test solutions prepared from 10′000 DMSO stock solutions. The samples were assessed for mortality 6 days after placing seedlings in test solutions.

The test system of series [3] is Frankliniella occidentalis. The experiment in a line: Activity against Frankliniella occidentalis (western flower thrips). It counts as in vivo. The conditions noted are these: foliar, 168 h, application rate of 200 ppm, sprayed sunflower leaf discs, population of mixed ages, 7 days after infestation. Here is the method: Sunflower leaf discs were placed on agar in 24-well microtiter plates and sprayed with aqueous test solutions prepared from […] stock solutions. After drying the leaf discs were infested with a Frankliniella population of mixed ages. The samples were assessed for mortality 7 days after infestation.

In a further series the test system is Bemisia tabaci. The experiment in a line: Activity against Bemisia tabaci (cotton white fly). It counts as in vivo. The conditions noted are these: foliar, 144 h, application rate of 200 ppm, sprayed cotton leaf discs, adult white flies, 6 days after incubation. Here is the method:
Cotton leaf discs were placed on agar in 24-well microtiter plates and sprayed with aqueous test solutions prepared from 10′000 ppm DMSO stock solutions. After drying the leaf discs were infested with adult white flies. The samples were checked for mortality 6 days after incubation.

A further series deals with Euschistus heros. The experiment in a line: Activity against Euschistus heros (neotropical brown stink bug). The series is classed as in vivo. The conditions noted are these: 120 h, application rate of 200 ppm, sprayed soybean leaf, N-2 nymphs, 5 days after infestation, read-out: effect in at least one of the two categories (mortality or growth inhibition). As to the method: Soybean leaf on agar in 24-well microtiter plates were sprayed with aqueous test solutions prepared from 10′000 ppm DMSO stock solutions. After drying the leaf were infested with N-2 nymphs. The samples were assessed for mortality and growth inhibition in comparison to untreated samples 5 days after infestation.

The test system of the next series is Diabrotica Balteata. The experiment in a line: Activity against Diabrotica balteata (corn root worm). The series is classed as in vivo. The note with it: 96 h, application rate of 200 ppm, sprayed maize sprouts, L2 larvae, 4 days after infestation, read-out: effect in at least one of the two categories (mortality or growth inhibition). Here is the method: Maize sprouts placed onto an agar layer in 24-well microtiter plates were treated with aqueous test solutions prepared from 10′000 ppm DMSO stock solutions by spraying. After drying, the plates were infested with L2 larvae (6 to 10 per well). The samples were assessed for mortality and growth inhibition in comparison to untreated samples 4 days after infestation.

For another series, the system named is Thrips tabaci. The experiment in a line: Activity against Thrips tabaci (onion thrips). The series is classed as in vivo. The note with it: foliar, 144 h, application rate of 200 ppm, sprayed sunflower leaf discs, thrips population of mixed ages, 6 days after infestation. Here is the method: Sunflower leaf discs were placed on agar in 24-well microtiter plates and sprayed with aqueous test solutions prepared from 10′000 ppm DMSO stock solutions. After drying the leaf discs were infested with a thrips population of mixed ages. The samples were assessed for mortality 6 days after infestation.

A further series deals with Spodoptera littoralis. The series can be described thus: Activity against Spodoptera littoralis (Egyptian cotton leaf worm). It counts as in vivo. The conditions noted are these: foliar, 72 h, application rate of 200 ppm, sprayed cotton leaf discs, L1 larvae, 3 days after infestation, read-out: control (mortality, anti-feeding effect, or growth inhibition). As to the method:
Cotton leaf discs were placed onto agar in 24-well microtiter plates and sprayed with aqueous test solutions prepared from 10′000 ppm DMSO stock solutions. After drying the leaf discs were infested with five L1 larvae. The samples were assessed for mortality, anti-feeding effect, and growth inhibition in comparison to untreated samples 3 days after infestation. Control of Spodoptera littoralis by a test sample is given when at least one of the categories mortality, anti-feedant effect, and growth inhibition is higher than the untreated sample.

As for `CCS(=O)(=O)c1cc(C(=O)N=S(C)(C)=O)cnc1-c1nc2cc(C(F)(F)F)ncc2n1C` [Compound P1, N-[dimethyl(oxo)-λ^6-sulfanylidene]-5-ethylsulfonyl-6-[3-methyl-6-(trifluoromethyl)imidazo[4,5-c]pyridin-2-yl]pyridine-3-carboxamide], the percent effect (mortality or growth inhibition) at 200 ppm in the series with Plutella xylostella, in the series on Euschistus heros and in the series with Diabrotica Balteata was at least 80% throughout. The mortality at 200 ppm (in the series on Myzus persicae [1]; in series [3]; in the series with Bemisia tabaci; in the series with Thrips tabaci) was at least 80% throughout. For the same compound, the mortality (as a rule, the share of the test organisms that died) at 24 ppm in the series on Myzus persicae [2] is at least 80%.
As for `CCS(=O)(=O)c1cc(C(=O)N=S(C)(=O)CC)cnc1-c1nc2cc(C(F)(F)F)ncc2n1C` (stereo not shown) [Compound P8, N-(ethyl-methyl-oxo-λ^6-sulfanylidene)-5-ethylsulfonyl-6-[3-methyl-6-(trifluoromethyl)imidazo[4,5-c]pyridin-2-yl]pyridine-3-carboxamide], the percent effect (mortality or growth inhibition) at 200 ppm with Plutella xylostella, in the series with Euschistus heros and in the series on Diabrotica Balteata was at least 80% each time. Besides, the mortality at 200 ppm (with Myzus persicae [1]; in [3]; in the series with Bemisia tabaci) was at least 80% throughout. Besides, the mortality at 24 ppm with Myzus persicae [2] is at least 80%. Besides, the percent control (mortality, anti-feedant effect or growth inhibition) at 200 ppm in the series on Spodoptera littoralis was at least 80%.
As for `CCS(=O)(=O)c1cc(C(=O)N=S(C)(C)=O)cnc1-c1nc2cc(C(F)(F)F)cnc2n1C` [Compound P14, N-[dimethyl(oxo)-λ^6-sulfanylidene]-5-ethylsulfonyl-6-[3-methyl-6-(trifluoromethyl)imidazo[4,5-b]pyridin-2-yl]pyridine-3-carboxamide], the percent effect (mortality or growth inhibition) at 200 ppm in the series on Plutella xylostella, with Euschistus heros and in the series with Diabrotica Balteata was at least 80% throughout. Also, the mortality at 200 ppm (in the series with Myzus persicae [1]; in series [3]; with Bemisia tabaci) was at least 80% throughout. Further, the mortality at 24 ppm in the series on Myzus persicae [2] is at least 80%. Moreover, in the series on Spodoptera littoralis, the percent control (mortality, anti-feedant effect or growth inhibition) at 200 ppm is at least 80%.
Take `CCS(=O)(=O)c1cc(C(=O)N=S(C)(=O)CC)cnc1-c1nc2cc(C(F)(F)F)cnc2n1C` (stereo not shown) [Compound P15, N-(ethyl-methyl-oxo-λ^6-sulfanylidene)-5-ethylsulfonyl-6-[3-methyl-6-(trifluoromethyl)imidazo[4,5-b]pyridin-2-yl]pyridine-3-carboxamide]: the percent effect (mortality or growth inhibition) at 200 ppm in the series on Plutella xylostella, with Euschistus heros and in the series with Diabrotica Balteata was at least 80% in each case. Moreover, the mortality at 200 ppm (with Myzus persicae [1]; in [3]; with Bemisia tabaci) was at least 80% in each case. This compound also showed a mortality at 24 ppm with Myzus persicae [2] of at least 80%. Moreover, the percent control (mortality, anti-feedant effect or growth inhibition) at 200 ppm in the series with Spodoptera littoralis was at least 80%.
As for `CCS(=O)(=O)c1cc(C(=O)N=S(C)(=O)CC)cnc1-n1cc2cnc(C(F)(F)F)cc2n1` (stereo not shown) [Compound P25, N-(ethyl-methyl-oxo-λ^6-sulfanylidene)-5-ethylsulfonyl-6-[6-(trifluoromethyl)pyrazolo[4,3-c]pyridin-2-yl]pyridine-3-carboxamide], the melting point (as a rule, the temperature, or range, at which the solid turns liquid) is 216 to 219 °C.
Still for that read-out and setting: next, `CCS(=O)(=O)c1cc(C(=O)N=S(=O)(CC)CC)cnc1-n1cc2cnc(C(F)(F)F)cc2n1` [Compound P26, N-[diethyl(oxo)-λ^6-sulfanylidene]-5-ethylsulfonyl-6-[6-(trifluoromethyl)pyrazolo[4,3-c]pyridin-2-yl]pyridine-3-carboxamide]: 185 to 189 °C.

(Values after patent US10894792B2, “Pesticidally active heterocyclic derivatives with sulfur containing substituents” (SYNGENTA PARTICIPATIONS AG, priority 2017, dated 2021).)
